Results on four molecules are retold here after PubChem BioAssay (NCI).

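Interpolation was linear, between the two tested concentrations surrounding the appropriate level; five concentrations were tested over 48 hours in 96-well plates. The concentration for 50% growth inhibition is given as GI50. The concentration for full growth arrest is given as TGI.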 A value given as a limit tells only on which side of the number the result lay.

Some test systems named below: CAKI-1 renal; NCI-H226 lung; SNB-75 CNS; UO-31 renal; MALME-3M melanoma; RPMI-8226 leukemia; TK-10 renal; KM12 colon; EKVX NSCLC; A498 renal.
What all share (experiment): DTP human tumour cell line panel, 48 h

Broadly, the GI50 is the concentration that inhibits growth by half. For orientation: TGI means the concentration at which net growth stops. Consider `N#Cc1ccccc1C#C/C=C\C#Cc1ccccc1N`, for which the GI50 with CAKI-1 renal was 0.129 µM; in the experiment with NCI-H226 lung it was 6.6 µM; in the experiment with SNB-75 CNS it was 6.13 µM; in the experiment with UO-31 renal it was 4.79 µM; in the experiment with MALME-3M melanoma it was 2.86 µM; with RPMI-8226 leukemia, 2.28 µM. The GI50 is 5.02 µM in the experiment on TK-10 renal, 2.55 µM with KM12 colon, 10 µM in the experiment with EKVX NSCLC and 34.9 µM with A498 renal. The TGI is 0.634 µM in the experiment on CAKI-1 renal; over 38.5 µM in the experiment with NCI-H226 lung; over 25.3 µM with SNB-75 CNS; over 25.7 µM in the experiment with UO-31 renal; 40.2 µM in the experiment with MALME-3M melanoma; over 93 µM in the experiment with RPMI-8226 leukemia. The TGI is over 49.3 µM in the experiment on TK-10 renal, over 51.3 µM in the experiment with KM12 colon, over 57.3 µM in the experiment with EKVX NSCLC and 94.1 µM in the experiment with A498 renal.

On to `Cc1ccc(OCC2=NC3S/C(=C/c4ccc([N+](=O)[O-])o4)C(=O)N3N2)cc1` (stereo not given), for which the total growth inhibition concentration (TGI) stood at 32 µM in the experiment on CAKI-1 renal; 33.3 µM with NCI-H226 lung; 30 µM in the experiment with SNB-75 CNS; 34.8 µM with UO-31 renal; 7.94 µM with MALME-3M melanoma; 6.16 µM in the experiment on RPMI-8226 leukemia. The TGI with TK-10 renal was 30.1 µM; with KM12 colon, 32 µM; with EKVX NSCLC it was 24.5 µM; in the experiment with A498 renal, 37.8 µM.

On to `Cc1ccc2nc(-c3ccc(NC(=O)c4ccc(N)cc4)c(S(=O)(=O)O)c3)sc2c1`, for which the TGI in the experiment on CAKI-1 renal, in the experiment with NCI-H226 lung, in the experiment on SNB-75 CNS, in the experiment with UO-31 renal, in the experiment with MALME-3M melanoma and in the experiment with RPMI-8226 leukemia was over 100 µM each time. The concentration for total growth inhibition (TGI) in the experiment with TK-10 renal, in the experiment with KM12 colon, in the experiment on EKVX NSCLC and with A498 renal was over 100 µM throughout.

As for `CCN1CCN(c2nc3ccccc3nc2C(=O)c2ccc(OC)c(OC)c2)CC1`, the concentration for total growth inhibition (TGI) with CAKI-1 renal was over 100 µM; in the experiment with NCI-H226 lung, over 100 µM; with SNB-75 CNS, 30.1 µM; with UO-31 renal, 47.1 µM; in the experiment on MALME-3M melanoma, 36.5 µM; in the experiment on RPMI-8226 leukemia, 35.8 µM. In addition, the TGI is 87.5 µM with TK-10 renal, 53.2 µM in the experiment with KM12 colon, 57.4 µM in the experiment on EKVX NSCLC and over 100 µM with A498 renal.
